This passage reports inhibition in vivo and melting point results from US20070244173A1, “6,7-Dihydroxy-8-Phenyl-3,6,7,8-Tetrahydro-Chromeno [7,8-d] Imidazole Derivatives and Their Use as Gastric Acid Secretion Inhibitors” (Altana Pharma AG, priority 2004, published 2007).

Each structure is given as a SMILES string.

Data set [1] relates to pentagastrin-stimulated acid secretion of the perfused rat stomach. As to the kind of experiment: Secretion-inhibiting action on the perfused rat stomach (pentagastrin-stimulated acid secretion, intraduodenal administration in vivo). The conditions noted are these: iv, dose 2 μmol/kg i.d., anesthetized female CD rat, pentagastrin 1 μg/kg i.v. infusion. An excerpt:
Testing of the Secretion-Inhibiting Action on the Perfused Rat Stomach
In Table A which follows, the influence of the compounds of the formula 1 according to the invention on the pentagastrin-stimulated acid secretion of the perfused rat stomach after intraduodenal administration in vivo is shown.
The abdomen of anesthetized rats (CD rat, female, 200-250 g; 1.5 g/kg i.m. urethane) was opened after tracheotomy by a median upper abdominal incision and a PVC catheter was fixed transorally in the esophagus and another via the pylorus such that the ends of the tubes just projected into the gastric lumen. The catheter leading from the pylorus led outward into the right abdominal wall through a side opening.
After thorough rinsing (about 50-100 ml), warm (37° C.) physiological NaCl solution was continuously passed through the stomach (0.5 ml/min, pH 6.8-6.9; Braun-Unita I). The pH (pH meter 632, glass electrode EA 147; φ=5 mm, Metrohm) and, by titration with a freshly prepared 0.01N NaOH solution to pH 7 (Dosimat 665 Metrohm), the secreted HCl were determined in the effluent in each case collected at an interval of 15 minutes.
The gastric secretion was stimulated by continuous infusion of […] (=1.65 ml/h) of i.v. pentagastrin (left femoral vein) about 30 min after the end of the operation (i.e. after determination of 2 preliminary fractions). The substances to be tested were administered intraduodenally in a 2.5 ml/kg liquid volume 60 min after the start of the continuous pentagastrin infusion. The body temperature of the animals was kept at a constant 37.8-38° C. by infrared irradiation and heat pads (automatic, stepless control by means of a rectal temperature sensor).

Take `Cc1nc2c3c(ccc2n1C1CC1)[C@@H](O)[C@H](O)[C@@H](c1ccccc1)O3` [Example 17, (6R,7S,8R)-3-Cyclopropyl-6,7-dihydroxy-2-methyl-8-phenyl-3,6,7,8-tetrahydro-chromeno[7,8-d]imidazole]: in data set [1], the inhibition in vivo at 2 µmol/kg was below 50%.

The molecule `Cc1nc2c3c(ccc2[nH]1)[C@@H](O)[C@H](O)[C@@H](c1ccccc1)O3` [Example 10, (6R,7S,8R)-6,7-Dihydroxy-2-methyl-8-phenyl-3,6,7,8-tetrahydro-chromeno[7,8-d]imidazole] yielded a melting point of 163 °C.

`CCO[C@@H]1c2ccc3c(nc(C)n3C)c2O[C@H](c2ccccc2)[C@H]1O` [Example 4, (6R,7S,8R)-6-Ethoxy-7-hydroxy-2,3-dimethyl-8-phenyl-3,6,7,8-tetrahydro-chromeno[7,8-d]imidazole]: the melting point worked out at 222 °C. Also, the inhibition in vivo at 2 µmol/kg in data set [1] was above 50%. For `COCCO[C@H]1c2ccc3c(nc(C)n3C3CC3)c2O[C@H](c2ccccc2)[C@H]1O` [Example 19, (6S,7S,8R)-3-Cyclopropyl-7-hydroxy-6-(2-methoxy-ethoxy)-2-methyl-8-phenyl-3,6,7,8-tetrahydro-chromeno[7,8-d]imidazole], in that order: 218 °C and above 50%.

The molecule `Cc1nc2c3c(ccc2n1C)[C@@H](OCCF)[C@H](O)[C@@H](c1ccccc1)O3` [Example 5, (6R,7S,8R)-6-(2-Fluoro-ethoxy)-7-hydroxy-2,3-dimethyl-8-phenyl-3,6,7,8-tetrahydro-chromeno[7,8-d]imidazole] gave a melting point of 226 °C. In data set [1], this molecule displayed an inhibition in vivo at 2 µmol/kg above 50%.

In turn, `COCCO[C@H]1c2ccc3c(nc(C4CC4)n3C)c2O[C@H](c2ccccc2)[C@H]1O` [Example 22, (6S,7S,8R)-2-Cyclopropyl-7-hydroxy-6-(2-methoxy-ethoxy)-3-methyl-8-phenyl-3,6,7,8-tetrahydro-chromeno[7,8-d]imidazole] had a melting point of 133 °C.

For `COCCO[C@@H]1c2ccc3c(nc(C4CC4)n3C)c2O[C@H](c2ccccc2)[C@H]1O` [Example 21, (6R,7S,8R)-2-Cyclopropyl-7-hydroxy-6-(2-methoxy-ethoxy)-3-methyl-8-phenyl-3,6,7,8-tetrahydro-chromeno[7,8-d]imidazole], the melting point came out at 157 °C. In turn, `C=CCn1c(C)nc2c3c(ccc21)[C@@H](OCCOC)[C@H](O)[C@@H](c1ccccc1)O3` [Example 11, (6R,7S,8R)-3Allyl-7-hydroxy-6-(2-methoxy-ethoxy)-2-methyl-8-phenyl-3,6,7,8-tetrahydro-chromeno[7,8-d]imidazole] registered a melting point of 79 °C. Also, the inhibition in vivo at 2 µmol/kg in data set [1] was below 50%. For `COCCO[C@H]1c2ccc3c(nc(C)n3C)c2O[C@H](c2ccccc2)[C@H]1O` [Example 2, (6S,7S,8R)-7-Hydroxy-6-(2-methoxy-ethoxy)-2,3-dimethyl-8-phenyl-3,6,7,8-tetrahydro-chromeno[7,8-d]imidazole], in that order: 163 °C and below 50%. `Cc1nc2c3c(ccc2n1C)[C@@H](OCC(F)F)[C@H](O)[C@@H](c1ccccc1)O3` [Example 9, (6R,7S,8R)-7-Hydroxy-6-(2,2-difluoro-ethoxy)-2,3-dimethyl-8-phenyl-3,6,7,8-tetrahydro-chromeno[7,8-d]imidazole]: the melting point is 249 °C. The inhibition in vivo at 2 µmol/kg in data set [1] was above 50%.

Molecule `COCCO[C@@H]1c2ccc3c(nc(C)n3C)c2O[C@H](c2ccccc2)[C@H]1OC(=O)COC` [Example 7, (6R,7S,8R)-7-(2-Methoxy-acetoxy)-6-(2-methoxy-ethoxy)-2,3-dimethyl-8-phenyl-3,6,7,8-tetrahydro-chromeno[7,8-d]imidazole] came in with a melting point of 200 °C. The molecule also returned an inhibition in vivo at 2 µmol/kg in data set [1] above 50%.

The molecule `Cc1nc2c3c(ccc2[nH]1)[C@H]1OCCO[C@@H]1[C@@H](c1ccccc1)O3` [Example 16, (5S,6R,10R)-16-Methyl-6-phenyl-2,3,5,6,10,17-hexahydro-1,4,7-trioxa-15,17-diaza-cyclopenta[a]phenanthrene] returned a melting point of 260 °C. In data set [1], the inhibition in vivo at 2 µmol/kg was above 50%. In the case of `Cc1nc2c3c(ccc2n1C)[C@H]1OCCO[C@@H]1[C@@H](c1ccccc1)O3` [Example 6, (5S,6R,10R)-16,17-Dimethyl-6-phenyl-2,3,5,6,10,17-hexahydro-1,4,7-trioxa-15,17-diaza-cyclopenta[a]phenanthrene], the melting point amounted to 307 °C. In data set [1], this molecule yielded an inhibition in vivo at 2 µmol/kg above 50%.

In turn, `Cc1nc2c3c(ccc2n1C)[C@@H](O)[C@H](O)[C@@H](c1ccccc1)O3` [Example 3, (6R,7S,8R)-6,7-Dihydroxy-2,3-dimethyl-8-phenyl-3,6,7,8-tetrahydro-chromeno[7,8-d]imidazole] gave a melting point of 262.5 °C. This molecule came in with an inhibition in vivo at 2 µmol/kg in data set [1] below 50%.

`COCCO[C@@H]1c2ccc3c(nc(C)n3C)c2O[C@H](c2ccccc2)[C@H]1O` [Example 1, (6R,7S,8R)-7-Hydroxy-6-(2-methoxy-ethoxy)-2,3-dimethyl-8-phenyl-3,6,7,8-tetrahydro-chromeno[7,8-d]imidazole]: in data set [1], the inhibition in vivo at 2 µmol/kg is above 50%. Turning to `COCCO[C@@H]1c2ccc3[nH]c(C)nc3c2O[C@H](c2ccccc2)[C@H]1O` [Example 13, (6R,7S,8R)-7-Hydroxy-6-(2-methoxy-ethoxy)-2-methyl-8-phenyl-3,6,7,8-tetrahydro-chromeno[7,8-d]imidazole], the melting point amounted to 117 °C. `C=CCn1c(C)nc2c3c(ccc21)[C@@H](OCCF)[C@H](O)[C@@H](c1ccccc1)O3` [Example 14, (6R,7S,8R)-3-Allyl-7-hydroxy-6-(2-fluoro-ethoxy)-2-methyl-8-phenyl-3,6,7,8-tetrahydro-chromeno[7,8-d]imidazole] displayed a melting point of 117 °C.

Molecule `CC=Cn1c(C)nc2c3c(ccc21)[C@H]1OCCO[C@@H]1[C@@H](c1ccccc1)O3` [Example 15, (5S,6R,10R)-16-Methyl-6-phenyl-17-propenyl-2,3,5,6,10,17-hexahydro-1,4,7-trioxa-15,17-diaza-cyclopenta[a]phenanthrene] gave a melting point of 213 °C. The molecule also had an inhibition in vivo at 2 µmol/kg in data set [1] above 50%. The corresponding values for `COCCO[C@@H]1c2ccc3c(nc(C)n3C)c2O[C@H](c2ccccc2)[C@H]1OC(=O)CN(C)C` [Example 8, (6R,7S,8R)-7-(2-Dimethylamino-acetoxy)-6-(2-methoxy-ethoxy)-2,3-dimethyl-8-phenyl-3,6,7,8-tetrahydro-chromeno[7,8-d]imidazole] are 175 °C and above 50%. `CC=Cn1c(C)nc2c3c(ccc21)[C@@H](OCCOC)[C@H](O)[C@@H](c1ccccc1)O3` [Example 12, (6R,7S,8R)-7-Hydroxy-6-(2-methoxy-ethoxy)-2-methyl-8-phenyl-3-propenyl-3,6,7,8-tetrahydro-chromeno[7,8-d]imidazole] had a melting point of 61 °C.

`COCCO[C@@H]1c2ccc3c(nc(C)n3C3CC3)c2O[C@H](c2ccccc2)[C@H]1O` [Example 18, (6R,7S,8R)-3-Cyclopropyl-7-hydroxy-6-(2-methoxy-ethoxy)-2-methyl-8-phenyl-3,6,7,8-tetrahydro-chromeno[7,8-d]imidazole] had a melting point of 183 °C. Also, the inhibition in vivo at 2 µmol/kg in data set [1] is below 50%.
